Source: US20060135500A1, “Novel oral pharmaceutical suspension of cefdinir crystal” (Astellas Pharma Inc., priority 2004, published 2006)

Assays:
Format in all cases: physicochemical
[1] = Dispersibility comparison assay, Method 1 (visual observation of suspension in test tube); conditions: summary statement
Protocol: The dispersibility of two crystal forms of Cefdinir was compared by evaluating sedimentation rates of two crystal forms. The evaluating sedimentation rate was conducted by using two methods as follow. About 1250 mg of crystal form A or the monohydrate were dispersed in 50 mL of water (125 mg/5 mL), and the suspensions were vigorously shaken by hand. […] The pictures of suspension states were taken with time.

[2] = Solvent medium transformation (suspension in water or ethanol, PXRD of residual solid); conditions: water or ethanol (99.5), room temperature
Protocol: Form A and the monohydrate were suspended in water or ethanol (99.5) at room temperature, and the powder X-ray diffraction (PXRD) patterns of the residual solid materials were measured (Bruker AXS D8 Discover with GADDS).

[3] = Dispersibility comparison assay, Method 2 (change of transmittance at 650 nm); conditions: 5 mg in 10 mL of water (0.5 mg/mL)
Protocol: The dispersibility of two crystal forms of Cefdinir was compared by evaluating sedimentation rates of two crystal forms. The evaluating sedimentation rate was conducted by using two methods as follow.
5 mg of crystal form A or the monohydrate were dispersed in 10 mL of water (sample concentration: 0.5 mg/mL), and the suspensions were vigorously shaken. Then, the dispersed suspensions were transferred in the cell for UV measurement, and changes of the transmittances at 650 nm were measured.

dispersibility in aqueous solvent [1] | sedimentation rate in aqueous solvent [1] | SMILES | crystalline conversion in aqueous and ethanol suspensions (PXRD of residual solid) [2] | change of transmittance of suspension at 650 nm [3]
higher than that of crystal form A | lower than that of crystal form A | C=CC1=C(C(=O)O)N2C(=O)C(NC(=O)C(=NO)c3csc(N)n3)[C@H]2SC1 (single isomer, unassigned) [crystal form C, 7-[2-(2-aminothiazol-4-yl)-2-hydroxyiminoacetamido]-3-vinyl-3-cephem-4-carboxyl ic acid (syn isomer)] |  | 
 |  | C=CC1=C(C(=O)O)N2C(=O)C(NC(=O)C(=NO)c3csc(N)n3)[C@H]2SC1 (single isomer, unassigned) [form A, 7-[2-(2-aminothiazol-4-yl)-2-hydroxyiminoacetamido]-3-vinyl-3-cephem-4-carboxyl ic acid (syn isomer)] | no crystalline conversion to other crystal form | faster increase than that of the monohydrate
